What follows are compounds tested against T1, Prostaglandin G/H synthase 2 (Mus musculus, UniProt Q05769) (assay: Inhibition of mouse macrophage COX2).
T1 sequence (Q05769 whole entry): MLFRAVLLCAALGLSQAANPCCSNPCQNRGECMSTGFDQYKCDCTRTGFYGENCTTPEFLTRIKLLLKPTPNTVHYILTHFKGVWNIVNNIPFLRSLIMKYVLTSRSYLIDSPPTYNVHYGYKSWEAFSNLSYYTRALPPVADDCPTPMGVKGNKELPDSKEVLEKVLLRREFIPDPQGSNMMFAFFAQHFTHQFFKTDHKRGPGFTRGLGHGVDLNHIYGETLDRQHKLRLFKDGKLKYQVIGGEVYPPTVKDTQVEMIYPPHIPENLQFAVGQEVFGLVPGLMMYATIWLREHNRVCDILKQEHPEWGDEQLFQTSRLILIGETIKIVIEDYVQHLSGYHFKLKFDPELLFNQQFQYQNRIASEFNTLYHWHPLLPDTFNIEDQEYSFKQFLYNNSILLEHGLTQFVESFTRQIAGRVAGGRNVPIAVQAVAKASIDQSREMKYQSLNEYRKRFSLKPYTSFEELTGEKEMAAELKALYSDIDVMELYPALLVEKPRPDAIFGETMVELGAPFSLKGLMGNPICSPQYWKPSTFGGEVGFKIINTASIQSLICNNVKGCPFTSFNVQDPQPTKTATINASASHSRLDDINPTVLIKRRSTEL

With Cc1ccc(-c2[nH]c(-c3ccc(C)cc3)c3c2CCCC3)cc1 as the compound, how does the IC50 read?
Its IC50 is 16.7 nM.

With CS(=O)(=O)c1ccc(-c2[nH]c(-c3ccc(S(C)(=O)=O)cc3)c3c2C2CCC3C2)cc1 as the compound, how does the IC50 read?
The IC50 was 10000 nM.

For CC1=C(C)Cc2c(c(-c3ccccc3)n(C)c2-c2ccccc2)C1, which IC50 is on record?
Its IC50 is 1000 nM.

Source: ChEMBL document CHEMBL1141670, “QSAR analysis of 1,3-diaryl-4,5,6,7-tetrahydro-2H-isoindole derivatives as selective COX-2 inhibitors” (Eur J Med Chem, 2008)
